Measurements taken from patent US10258639B2, “Methods for treating insulin resistance and for sensitizing patients to GLP1 agonist therapy” (Research Development Foundation, priority 2014, dated 2019).

Tested on: INS1 cells
Assay: RNAseq of INS1 cells infected with ACREB compared to GFP and stimulated with FSK
Format: cell-based, rat
Parameters: Irs2 RNAseq value, FSK / MafA RNAseq value, FSK / Nr4a2 RNAseq value, FSK / Diras2 RNAseq value, FSK: unit not given here
Details: for Diras2 fold induction / Irs2 fold induction / MafA fold induction / Nr4a2 fold induction: FSK vs control; for Diras2 RNAseq value, FSK / Irs2 RNAseq value, FSK / MafA RNAseq value, FSK / Nr4a2 RNAseq value, FSK: stimulated with FSK
Experimental: Transcriptome-wide studies were performed to identify CREB target genes that promote insulin expression and secretion. […] INS-1 insulinoma cells were cultured in RPMI (corning cellgro) containing 10% fetal bovine serum (Gemini Bio Products), 100 μg/mL penicillin-streptomycin and 1 mM sodium pyruvate (corning cellgro). MIN6 cells were grown in DMEM (corning cellgro) with 10% FBS, 100 μg/mL penicillin-streptomycin and 70 uM beta-mercaptoethanol. For chronic glucose experiments, cells were maintained under low (2.8 mM) or high (20 mM) glucose for 3 days. Exendin-4 (10 nM), Forskolin (10 μM), KCl (40 mM), DMOG (1 mM) and rapamycin (50 nM) were added to cells as indicated. Cellular cAMP levels were measured using an ELISA kit (Cayman Chemical Company) according to manufacturer's instructions. Total RNAs from cells or primary islets were extracted using Trizol and cDNA was generated using the Transcriptor First Strand cDNA Synthesis kit (Roche Applied Science). cDNAs were quantified on a lightcycler 480 instrument (Roche Applied Science). Gene expression data were presented relative to the expression of housekeeping gene L32 (rat samples) and 18S (mouse and human islets). RNA-Seq libraries were prepared using the mRNA isolation protocol and the NEBNext-Ultra kits from New England Biolabs following the manufacturer's protocols. Libraries were quantitated by Qubit (Invitrogen), and run on a MiSeq instrument with paired-end 75 bp reads using v3 chemistry (Illumina) Data were analyzed by tophat2 and cuffdiff against the mouse mm10 genome build. The GEO accession number for RNAseq studies reported in the paper is GSE60158.

- Diras2 fold induction (INS1 cells infected with ACREB): 1.7 fold
- Irs2 fold induction (INS1 cells infected with ACREB): 2.3 fold
- MafA fold induction (INS1 cells infected with ACREB): 3.7 fold
- Nr4a2 fold induction (INS1 cells infected with ACREB): 6.3 fold
- Diras2 fold induction (INS1 cells infected with GFP): 11.5 fold
- Irs2 fold induction (INS1 cells infected with GFP): 5.6 fold
- MafA fold induction (INS1 cells infected with GFP): 8.7 fold
- Nr4a2 fold induction (INS1 cells infected with GFP): 56.6 fold
Compound: C=C[C@@]1(C)CC(=O)[C@]2(O)[C@@]3(C)[C@@H](O)CCC(C)(C)[C@@H]3[C@H](O)[C@H](OC(C)=O)[C@@]2(C)O1 [FSK, Forskolin]
- Diras2 RNAseq value, FSK (INS1 cells infected with ACREB): 109.5
- Irs2 RNAseq value, FSK (INS1 cells infected with ACREB): 38.8
- MafA RNAseq value, FSK (INS1 cells infected with ACREB): 90.2
- Nr4a2 RNAseq value, FSK (INS1 cells infected with ACREB): 5.5
- Diras2 RNAseq value, FSK (INS1 cells infected with GFP): 519.7
- Irs2 RNAseq value, FSK (INS1 cells infected with GFP): 289.9
- MafA RNAseq value, FSK (INS1 cells infected with GFP): 474.4
- Nr4a2 RNAseq value, FSK (INS1 cells infected with GFP): 106.5
